Laboratory results: paper PMC6327044, “A chemical biology screen identifies a vulnerability of neuroendocrine cancer cells to SQLE inhibition” (Nature Communications, 2019)

Tests used:
Test in all cases: cells
Parameters in all cases: species or system panel of 482 human cancer cell lines; ATPLite luminescence growth inhibition after treatment, nine-point dilution curve, 482 cancer cell lines, 384-well
Conditions in all cases: 72 h, recommended growth medium
[1] = test system: YD10B_UPPER_AERODIGESTIVE_TRACT
Procedure, shortened: (§1)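 Growth inhibition was measured across a panel of 482 cancer cell lines. Cells were plated at 500 cells per well in recommended growth media in black, tissue culture treated 384-well plates, centrifuged to equilibrate, and incubated 24 h before dosing. Compounds were tested as nine-point dilution curves for 72 h, with viability read by ATPLite luminescence relative to DMSO-treated controls.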

[2] = test system: JHH6_LIVER
Procedure, shortened: as §1

[3] = test system: TMD8_HAEMATOPOIETIC_AND_LYMPHOID_TISSUE
Procedure, shortened: as §1

[4] = test system: NCIH1666_LUNG
Procedure, shortened: as §1

[5] = test system: LU139_LUNG
Procedure, shortened: as §1

[6] = test system: NCIH1435_LUNG
Procedure, shortened: as §1

[7] = test system: NCIH1581_LUNG
Procedure, shortened: as §1

[8] = test system: SW1116_LARGE_INTESTINE
Procedure, shortened: as §1

[9] = test system: KYSE520_OESOPHAGUS
Procedure, shortened: as §1

[10] = test system: MINO_HAEMATOPOIETIC_AND_LYMPHOID_TISSUE
Procedure, shortened: as §1

[11] = test system: CAL27_UPPER_AERODIGESTIVE_TRACT
Procedure, shortened: as §1

[12] = test system: NCIN87_STOMACH
Procedure, shortened: as §1

[13] = test system: SNU1066_UPPER_AERODIGESTIVE_TRACT
Procedure, shortened: as §1

[14] = test system: OCILY3_HAEMATOPOIETIC_AND_LYMPHOID_TISSUE
Procedure, shortened: as §1

[15] = test system: FARAGE_NS
Procedure, shortened: as §1

[16] = test system: DU4475_BREAST
Procedure, shortened: as §1

[17] = test system: KYSE510_OESOPHAGUS
Procedure, shortened: as §1

CCN(C/C=C/C#CC(C)(C)C)Cc1cccc(OCc2cc(-c3ccsc3)cs2)c1 [NB-598]
GI50 [1]: 71.4 nM | GI50 [2]: 8890 nM | GI50 [3]: 131 nM | GI50 [4]: 24.9 nM | GI50 [5]: 32.1 nM | GI50 [6]: 3.11 nM | GI50 [7]: 12.4 nM | GI50 [8]: 19100 nM | GI50 [9]: 45500 nM | GI50 [10]: 33400 nM | GI50 [11]: 12400 nM | GI50 [12]: 9650 nM | GI50 [13]: 121000 nM | GI50 [14]: 91.1 nM | GI50 [15]: 14.2 nM | GI50 [16]: 61.7 nM | GI50 [17]: 73.1 nM
